This assay concerns the target T1, human LXRβ (Homo sapiens, UniProt P55055).
T1 construct: expressed in transfected cells; host or cells: HEK293 cells (ATCC CRL-1573), transient transfection with pFA-hLXRβ/GAL4 and pUAS
T1 sequence (P55055 222-460 limits assumed): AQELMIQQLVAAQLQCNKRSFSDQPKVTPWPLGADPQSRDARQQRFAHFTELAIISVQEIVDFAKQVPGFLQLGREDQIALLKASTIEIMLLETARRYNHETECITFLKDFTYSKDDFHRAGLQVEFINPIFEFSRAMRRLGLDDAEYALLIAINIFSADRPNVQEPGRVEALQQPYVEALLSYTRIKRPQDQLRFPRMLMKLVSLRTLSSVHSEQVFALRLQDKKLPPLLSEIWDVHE
Put plainly: Assay for Transcriptional Activity of LXRβ (GAL4-hLXRβ LBD luciferase reporter, transient transfection). The class given is cell-based. Conditions: HEK293 cells transfected with pFA-hLXRβ/GAL4 and pUAS, 24 hours; for Emax: fold value in comparison with the control (DMSO-treated group); for EC50: increase of transcriptional activity of LXRβ, average of three independent tests. Put shortly: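 EC50 values, averaged over three independent runs, come from a four-parameter fit of 9-point half-log curves spanning 0.01–50 μM. Luciferase output was read in lysed HEK293 cells 24 h after dosing at 37 °C, following transient transfection with a GAL4-human LXRβ LBD fusion plus GAL4-responsive reporter.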
(A reporter such as luciferase makes a cellular process visible.)

`CS(=O)(=O)c1cc(F)c(-c2ccc(C3CC(C(O)(C(F)(F)F)C(F)(F)F)=NN3c3ccccc3Cl)cc2)c(F)c1` (stereo not drawn) [Example 288, 1-(2-chloro-phenyl)-5-[2′,6′-difluoro-4′-(methylsulfonyl)-biphenyl-4-yl]-3-[di-(trifluoromethyl)-hydroxy-methyl]-4,5-dihydro-1H-pyrazole] displayed an Emax of 40 fold and an EC50 of 727 nM.

For `OC(C1=NN(c2ccccc2Cl)C(c2ccc(-c3cnc4ccccc4c3)cc2)C1)(C(F)(F)F)C(F)(F)F` (stereo not drawn) [Example 259, 1-(2-chloro-phenyl)-5-(4-quinolin-3-yl-phenyl)-3-[di-(trifluoromethyl)-hydroxy-methyl]-4,5-dihydro-1H-pyrazole], the Emax is 57 fold and the EC50 is 519 nM.

For `CN(C)S(=O)(=O)N1CCN(c2ccc(C3CC(C(O)(C(F)(F)F)C(F)(F)F)=NN3c3ccc(F)cc3F)cc2)CC1` (stereo not drawn) [Example 407, 1-(2,4-difluoro-phenyl)-5-[4-(4-dimethylsulfamoyl-piperazin-1-yl)-phenyl]-3-[di-(trifluoromethyl)-hydroxy-methyl]-4,5-dihydro-1H-pyrazole], the Emax was determined as 58 fold and a half-maximal response (EC50) required 731 nM.

With `CSc1ccc(-c2ccc(C3CC(C(O)(C(F)(F)F)C(F)(F)F)=NN3c3ccc(F)cc3F)cc2)cn1` (stereo not drawn) [Example 382, 1-(2,4-difluoro-phenyl)-5-[4-(6-methanesulfanyl-pyridin-3-yl)-phenyl]-3-[di-(trifluoromethyl)-hydroxy-methyl]-4,5-dihydro-1H-pyrazole], the Emax is reported as 44 fold and the EC50 came out at 772 nM.

For `N#Cc1ncccc1-c1ccc(C2CC(C(O)(C(F)(F)F)C(F)(F)F)=NN2c2ccc(F)cc2F)cc1` (stereo not drawn) [Example 380, 5-[4-(2-cyano-pyridin-3-yl)-phenyl)-1-(2,4-difluoro-phenyl)-3-[di-(trifluoromethyl)-hydroxy-methyl]-4,5-dihydro-1H-pyrazole], the Emax was 38 fold and it took 450 nM to reach a half-maximal effect (EC50).

For the compound `O=S(=O)(C1CC1)N1CC=C(c2cccc(N3N=C(C(O)(C(F)(F)F)C(F)(F)F)CC3c3ccccc3Cl)c2)CC1` (stereo not drawn) [Example 438, 5-(2-chloro-phenyl)-1-[3-(1-cyclopropanesulfonyl-1,2,3,6-tetrahydropyridin-4-yl)-phenyl]-3-[di-(trifluoromethyl)-hydroxy-methyl]-4,5-dihydro-1H-pyrazole], the Emax came out at 6 fold and the response was half-maximal at 1930 nM (EC50).

The compound `OC(C1=NN(c2ccccc2Cl)C(c2ccc(-c3cccnc3F)cc2)C1)(C(F)(F)F)C(F)(F)F` (stereo not drawn) [Example 261, 1-(2-chloro-phenyl)-5-[4-(2-fluoro-pyridin-3-yl)-phenyl]-3-[di-(trifluoromethyl)-hydroxy-methyl]-4,5-dihydro-1H-pyrazole] came in with an Emax of 54 fold and an EC50 of 699 nM.

For the compound `Cc1ccccc1-c1ccc(C2CC(C(O)(C(F)(F)F)C(F)(F)F)=NN2c2ccccc2Cl)cc1` (stereo not drawn) [Example 249, 1-(2-chloro-phenyl)-5-(2′-methyl-biphenyl-4-yl)-3-[di-(trifluoromethyl)-hydroxy-methyl]-4,5-dihydro-1H-pyrazole], the Emax was determined as 115 fold and the EC50 amounted to 784 nM.

Consider `O=S(=O)(C1CC1)N1CCN(c2ccc(F)c(C3CC(C(F)(F)C(F)(F)F)=NN3c3ccc(F)cc3F)c2)CC1` (stereo not drawn) [Example 146, 1-(2,4-difluoro)-5-[2-fluoro-5-(4-cyclopropanesulfonyl-piperazin-1-yl)-phenyl]-3-pentafluoroethyl-4,5-dihydro-1H-pyrazole], for which the Emax came out at 105 fold and the EC50 was determined as 842 nM.

The compound `CS(=O)(=O)c1ccc(-c2ccc(C3CC(C(O)(C(F)(F)F)C(F)(F)F)=NN3c3ccc(F)cc3F)cc2)cc1C(F)(F)F` (stereo not drawn) [Example 392, 1-(2,4-difluoro-phenyl)-5-(4′-methanesulfonyl-3′-trifluoromethyl-biphenyl-4-yl)-3-[di-(trifluoromethyl)-hydroxy-methyl]-4,5-dihydro-1H-pyrazole] came in with an Emax of 26 fold and a 50% effective concentration (EC50) of 147 nM.

The compound `O=S(=O)(C1CC1)N1CCN(c2ccc(C3CC(C(O)(C(F)(F)F)C(F)(F)F)=NN3c3ccccc3Cl)cc2)CC1` (stereo not drawn) [Example 315, 1-(2-chloro-phenyl)-5-[4-(4-cyclopropanesulfonyl-piperazin-1-yl)-phenyl]-3-[di-(trifluoromethyl)-hydroxy-methyl]-4,5-dihydro-1H-pyrazole] came in with an Emax of 59 fold and an EC50 of 1490 nM.

Regarding `CS(=O)(=O)c1ccc(-c2cc(C3CC(C(F)(F)C(F)(F)F)=NN3c3ccc(F)cc3F)ccn2)cn1` (stereo not drawn) [Example 189, 1-(2,4-difluoro-phenyl)-5-[2-(6-methanesulfonyl-pyridin-3-yl)-pyridin-4-yl]-3-pentafluoroethyl-4,5-dihydro-1H-pyrazole], the Emax is reported as 56 fold and the EC50 was 2720 nM.

As to `COc1ncc(-c2cccc(C3CC(C(F)(F)C(F)(F)F)=NN3c3ccc(F)cc3F)c2)cc1C=O` (stereo not drawn) [Example 73, 1-(2,4-difluoro-phenyl)-5-(3-(3-formyl-2-methoxy-pyridin-5-yl)-phenyl)-3-pentafluoroethyl-4,5-dihydro-1H-pyrazole], the Emax amounted to 13 fold and a half-maximal effect (EC50) was put at 1070 nM.

`OC(C1=NN(c2ccccc2Cl)C(c2ccc(-c3cncnc3)cc2)C1)(C(F)(F)F)C(F)(F)F` (stereo not drawn) [Example 258, 1-(2-chloro-phenyl)-5-(4-pyrimidin-5-yl-phenyl)-3-[di-(trifluoromethyl)-hydroxy-methyl]-4,5-dihydro-1H-pyrazole] showed an Emax of 62 fold and an EC50 of 302 nM.

`CS(=O)(=O)Nc1cccc(-c2ccc(C3CC(C(O)(C(F)(F)F)C(F)(F)F)=NN3c3ccccc3Cl)cc2)c1` (stereo not drawn) [Example 310, 5-(3′-methanesulfonyl-aminobiphenyl-4-yl)-1-(2-chloro-phenyl)-3-[di-(trifluoromethyl)-hydroxy-methyl]-4,5-dihydro-1H-pyrazole] showed an Emax of 78 fold and an EC50 of 1150 nM.

With `CS(=O)(=O)c1ccc(-c2cncc(C3CC(C(F)(F)C(F)(F)F)=NN3c3ccc(F)cc3F)c2)cn1` (stereo not drawn) [Example 166, 1-(2,4-difluoro-phenyl)-5-[3-(6-methanesulfonyl-pyridin-3-yl)-pyridin-5-yl]-3-pentafluoroethyl-4,5-dihydro-1H-pyrazole], the Emax is listed as 56 fold and the EC50 turned out to be 7050 nM.

In the case of `CC(=O)c1ccccc1-c1ccc(C2CC(C(O)(C(F)(F)F)C(F)(F)F)=NN2c2ccccc2Cl)cc1` (stereo not drawn) [Example 241, 5-(2′-acetyl-biphenyl-4-yl)-1-(2-chloro-phenyl)-3-[di-(trifluoromethyl)-hydroxy-methyl]-4,5-dihydro-1H-pyrazole], the Emax is listed as 47 fold and the EC50 came to 3350 nM.

As to `COc1ncc(-c2cccc(C3CC(C(F)(F)C(F)(F)F)=NN3c3ccc(F)cc3F)c2)cc1CO` (stereo not drawn) [Example 90, 1-(2,4-difluoro-phenyl)-5-[3-(5-hydroxymethyl-6-methoxy-pyridin-3-yl)-phenyl]-3-pentafluoroethyl-4,5-dihydro-1H-pyrazole], the Emax is recorded as 33 fold and the EC50 was determined as 2650 nM.

As usually defined, the EC50 is the concentration needed to bring the measured effect to its halfway point. A low value points to a more potent agent.

The values above are taken from patent US9376420B2 (YUHAN CORPORATION, priority 2012, dated 2016).
